Reference: patent US20090093011A1, “Biosensors for ligand-directed functional selectivity” (priority 2007, published 2009)
“Also recorded” adds a separate entry of the source. Like-named read-outs stand apart in the source and are kept apart here.

Columns and labels:
β2AR [1] = target: T1, β2AR (Homo sapiens, UniProt P07550); settings: binding affinity reference value from literature sources; cited from earlier work
β2AR [2] = target: T1, β2AR; experiment: Ligand-induced DMR signal, RWG biosensor, quiescent A431 cells; format: cell-based; set-up: A431 cells endogenously express large numbers of the β2AR; endogenous in cells; host or cells: A431 (human epidermoid carcinoma), quiescent; settings: for EC50: DMR response at assay time of 50 min; for t1/2: P-DMR event, single phase exponential association fit; for N-DMR (pm): amplitude of N-DMR event; for P-DMR (pm): amplitude of P-DMR event; for t1/2 of the P-DMR event: one-phase exponential association; for type of DMR signal induced by the ligand alone: saturating concentration, quiescent A431 cells; for transition time (τ in seconds): time for the P-DMR event to occur; for t1/2 of single-phase exponential decay of EC50 with assay time: EC50 as a function of assay time (FIG. 3c)
Method: Cell culture—Human epidermoid carcinoma A431 cells (American Type Cell Culture) were grown in Dulbecco's modified Eagle's medium (DMEM) supplemented with 10% fetal bovine serum (FBS), 4.5 g/liter glucose, 2 mM glutamine, and antibiotics. About 1.8×10^4 cells at passage 3 to 8 suspended in 50 μL the DMEM medium containing 10% FBS were placed in each well of a 384-well microplate, and were cultured at 37° C. under air/5% CO2 for about 1 day, followed by about 20 hr starvation through continuously culturing in the serum-free DMEM.
Optical biosensor system and cell assays—A Corning® Epic® wavelength interrogation system with an on-board liquid handling system was used. The system is standalone and consists of a temperature-control unit, an optical detection unit, and an on-board liquid handling unit with robotics. The temperature-control unit minimizes temperature fluctuations, if any. Inside this unit, there are two side-by-side stacks for holding both the sensor microplates and compound source plates. Once stable temperature is reached (typically within 1 hr), a sensor microplate is transferred by the robotics into the plate holder right above the detection system, while a source plate is moved to an appropriate compartment so that it is readily addressable by the on-board liquid handling unit.
The detection unit has integrated fiber optics to measure the wavelength shift of the resonant lights due to ligand-induced dynamic mass redistribution in living cells. A broadband white light source centered on 830 nm, generated through a fiber optic and a collimating lens at nominally normal incidence through the bottom of the microplate, is used to illuminate a small region of the grating surface. A detection fiber for recording the reflected light is bundled with the illumination fiber. A series of illumination/detection heads are arranged in a linear fashion, so that reflection spectra are collected from the 16-wells within the same column of a 384 well microplate at once.
(§1) For kinetic assays, the cells were washed with HBSS (Hanks Balanced Salt Solution with 20 mM HEPES) buffer. After 1 hour incubation within the detection system, the sensor plate was scanned and a baseline response was recorded. Then, compound solutions were transferred into the sensor plate using the on-board liquid handling system, and the cell responses were then recorded for another period of time. The lid of the sensor microplates was on throughout the assay, except of a short period of time (about 1 min.) when the compounds were introduced. The plate lid was handled automatically by the robotics. All studies were carried out at controlled temperature (28° C.).
Statistical analysis—Unless specifically mentioned, three replicates were carried out for each measurement or each compound. The standard deviation was derived from these measurements (n=3). […] All dose-dependent responses were analyzed using non-linear regression method with Prism software (available from Graph Pad).
Ligand-specific DMR signals—β2AR in A431 cells were selected as a model system for assaying ligand-directed functional selectivity, because of well-established signaling pathways of the β2AR in A431 as well as the availability of a rich source of structurally similar ligands having wide spectrum of efficacies. A431 cells endogenously express large numbers of the β2AR (about 34,000 copies per cells). To examine the functional selectivity of β2AR ligands, we used RWG biosensor to follow change in local mass density or distribution as a function of time upon stimulation with a saturating concentration of a ligand. The RWG biosensor detects an integrated response, termed as dynamic mass redistribution (DMR) signal, mediated through ligand-induced activation of the β2AR. The DMR signal approximates a global representation of the receptor activation and signaling, particularly for signaling events associated with dynamic relocation of cellular matters at or near the sensor surface.

β2AR [3] = target: T1, β2AR; experiment: Catechol co-stimulation of β2AR ligand-induced DMR signals in A431 cells; format: cell-based; set-up: A431 cells endogenously express large numbers of the β2AR; endogenous in cells; host or cells: A431 (human epidermoid carcinoma), quiescent; settings: catechol of 500 μM; pindolol of 10 nM, epinephrine of 100 nM
From the text: The ability of catechol to modulate the DMR signals induced by other ligands was examined. […] In embodiments the signaling of 600 or 610 can be completely separated, or can partially overlap.

β2AR [4] = target: T1, β2AR; settings: βARK- and PKA-mediated phosphorylation; cited from earlier work
dynamin = settings: 2 nM epinephrine after pretreatment with 25 μM DIPC
From the text: Although not bound by theory, a receptor internalization process is believed to result in a loss in local mass density or distribution within the sensing volume of the biosensor, leading to a negative contribution to the overall response. Since dynamin is known to play an important role in the ligand-induced β2AR internalization, we examined the effect of inhibiting dynamin activity on the ligand responses.

β2AR [5] = target: T1, β2AR; settings: dopamine of <100 μM; antagonist 1 μM
Method: as §1

T1 sequence (P07550 whole entry): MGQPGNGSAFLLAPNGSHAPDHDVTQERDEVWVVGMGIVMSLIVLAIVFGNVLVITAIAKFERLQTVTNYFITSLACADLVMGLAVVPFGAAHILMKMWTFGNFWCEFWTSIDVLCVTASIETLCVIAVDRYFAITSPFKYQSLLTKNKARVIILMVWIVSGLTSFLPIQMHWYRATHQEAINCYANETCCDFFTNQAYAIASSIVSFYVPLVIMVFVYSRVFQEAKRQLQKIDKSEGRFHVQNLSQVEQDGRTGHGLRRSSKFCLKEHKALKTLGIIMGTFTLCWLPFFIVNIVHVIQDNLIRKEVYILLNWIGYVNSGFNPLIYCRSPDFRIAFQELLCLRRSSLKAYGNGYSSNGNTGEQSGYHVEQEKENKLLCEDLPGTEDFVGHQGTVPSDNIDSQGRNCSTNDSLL

Oc1ccccc1O [catechol]
−logKi (ref.) (β2AR [1]): 3.80(3) | transition time (τ) (β2AR [2]): about 140 sec | EC50 (β2AR [2]): 501 µM | t1/2 (β2AR [2]): 4.82 ± 0.7 min | N-DMR (pm) (β2AR [2]): 0 ± 3 pm | P-DMR (pm) (β2AR [2]): 152 ± 13 pm | maximal amplitude of the P-DMR event, normalized to the epinephrine response (β2AR [2]; n=16): 66% | t1/2 of the P-DMR event (β2AR [2]): about 289 s | type of DMR signal induced by the ligand alone (β2AR [2]): initial steady phase (termed as net-zero DMR) with a short duration, and a succeeding P-DMR | transition time (τ in seconds) (β2AR [2]): 130 ± 15 s

NCCc1ccc(O)c(O)c1 [dopamine]
t1/2 (β2AR [2]): 8 ± 0.383 min | N-DMR (pm) (β2AR [2]): 31 ± 4 pm | P-DMR (pm) (β2AR [2]): 214 ± 32 pm | t1/2 of the P-DMR event (β2AR [2]): about 480 s | type of DMR signal induced by the ligand alone (β2AR [2]): biphasic response | transition time (τ in seconds) (β2AR [2]): 252 ± 15 s

CNC[C@H](O)c1ccc(O)c(O)c1 [epinephrine]
DMR signal on co-stimulation with catechol compared with individual signals (β2AR [3]): almost identical to that induced by 100 nM epinephrine alone | kobs of receptor phosphorylation (β2AR [4]): about 20 sec | t1/2 for the P-DMR event (dynamin): about 200 seconds | transition time (τ) (dynamin): about 120 sec | transition time (τ) (β2AR [2]): about 140 sec | t1/2 of single-phase exponential decay of EC50 with assay time (β2AR [2]): about 203 sec | t1/2 (β2AR [2]): 8.68 ± 0.417 min | N-DMR (pm) (β2AR [2]): 37 ± 7 pm | P-DMR (pm) (β2AR [2]): 232 ± 12 pm | duration of initial N-DMR (β2AR [2]; epinephrine response, FIG. 1): about 130 sec | duration of subsequent P-DMR (β2AR [2]; epinephrine response, FIG. 1): > 10 min | maximal amplitude of the P-DMR event, normalized to the epinephrine response (β2AR [2]; n=16): 100% | type of DMR signal induced by the ligand alone (β2AR [2]): biphasic response | transition time (τ in seconds) (β2AR [2]): 132 ± 20 s

CNCC(O)c1ccccc1 (centres unmarked) [halostachine]
−logKi (ref.) (β2AR [1]): 5.08(3) | maximal amplitude of the P-DMR event, normalized to the epinephrine response (β2AR [2]): 90% | EC50 (β2AR [2]): 23.4 µM

NC[C@H](O)c1ccc(O)c(O)c1 [norepinephrine]
t1/2 of single-phase exponential decay of EC50 with assay time (β2AR [2]): about 248 sec | t1/2 (β2AR [2]): 9.32 ± 0.25 min | N-DMR (pm) (β2AR [2]): 29 ± 5 pm | P-DMR (pm) (β2AR [2]): 209 ± 16 pm | maximal amplitude of the P-DMR event, normalized to the epinephrine response (β2AR [2]; n=16): 91% | type of DMR signal induced by the ligand alone (β2AR [2]): biphasic response | transition time (τ in seconds) (β2AR [2]): 180 ± 17 s

NCCc1ccccc1 [phenylethylamine]
type of DMR signal induced by the ligand alone (β2AR [2]): complicated DMR signal

CC(C)NCC(O)COc1cccc2[nH]ccc12 (centres unmarked) [pindolol]
DMR signal on co-stimulation with catechol compared with individual signals (β2AR [3]): closely resembled, but was not identical to, the sum of the two DMR signals; also recorded: close to the sum of the two DMR signals obtained individually | t1/2 (β2AR [2]): 8.6 ± 0.783 min | N-DMR (pm) (β2AR [2]): 0 ± 4 pm | P-DMR (pm) (β2AR [2]): 142 ± 19 pm | maximal amplitude of the P-DMR event, normalized to the epinephrine response (β2AR [2]; n=16): 61% | type of DMR signal induced by the ligand alone (β2AR [2]): initial steady phase (termed as net-zero DMR) with a short duration, and a succeeding P-DMR | transition time (τ in seconds) (β2AR [2]): 250 ± 15 s

O=C(CCCN1CCC2(CC1)C(=O)NCN2c1ccccc1)c1ccc(F)cc1 [spiperone]
inhibition of the dopamine response (β2AR [5]): neither 1 μM SCH 23390 nor 1 μM spiperone

NCCc1ccc(O)cc1 [tyramine]
type of DMR signal induced by the ligand alone (β2AR [2]): complicated DMR signal

O=C(NCCNCC(O)COc1ccc(O)cc1)N1CCOCC1 (centres unmarked) [xamoterol]
t1/2 (β2AR [2]): 16.2 ± 2.5 min | N-DMR (pm) (β2AR [2]): 0 ± 5 pm | P-DMR (pm) (β2AR [2]): 75 ± 18 pm | t1/2 of the P-DMR event (β2AR [2]): about 974 s | type of DMR signal induced by the ligand alone (β2AR [2]): initial steady phase (termed as net-zero DMR) with a short duration, and a succeeding P-DMR | transition time (τ in seconds) (β2AR [2]): 260 ± 26 s
